{
  "source": "patent US8741339B2",
  "about": "“Active targeting polymer micelle encapsulating drug, and pharmaceutical composition” (Nonocarrier Co., Ltd., priority 2008, dated 2014)",
  "type_in_all_cases": "cell-based",
  "key": {"[1]": {"test_system": "human liver cancer HepG2 cell", "assay": "Cytotoxicity test 4 (WST method, 8 hours with sample liquid)", "conditions": "total cultivation 72 hours, as CPT concentration"}, "[2]": {"test_system": "human prostate cancer DU145 cell", "assay": "Cytotoxicity test 3 (WST method, 8 hours with sample liquid)", "conditions": "DU-145, total cultivation 72 hours, as CPT concentration"}, "[3]": {"test_system": "human breast cancer MDA-MB-231 cell", "assay": "Cytotoxicity test 5 (WST method, 8 hours with sample liquid)", "conditions": "MDA-MB-231, human breast cancer, total cultivation 72 hours, as CPT concentration", "method": "The human breast cancer MDA-MB-231 cell, which had been suspended in 90 μIL of a medium, was seeded to a 96-well plate so that the cell would be contained at a concentration of about 5000 cells per well, and cultivated under an atmosphere of 37° C. and 5% CO2 overnight. The medium was formed of RPMI1640 (Gibco™, Invitrogen) and 10% Fetal Bovine Serum (FBS, biowest). Subsequently, each of sample liquids at various DTX concentrations obtained by diluting the micelle solution in Example 2 and the micelle solution in Comparative Example 1 with the medium was added to each well (10 μL per well), […] […] From each well, the absorbance (Abs450) of light at a wavelength of 450 nm was measured, and the cell growth rate (% cell growth) was calculated based on the below-indicated mathematical equation. It should be noted that “Abs450 value of control” in the mathematical equation means an absorbance obtained from a well in which the above-mentioned cultivation has been performed using a culture liquid free of DTX. % cell growth=[(Abs450 value after addition of sample liquid)−(Abs450 value of blank)]/[(Abs450 value of control)−(Abs450 value of blank)]×100 […]"}},
  "data": [
    {"smiles": "CC[C@@]1(O)C(=O)OCc2c1cc1n(c2=O)Cc2cc3ccccc3nc2-1", "note": "[Solution, camptothecin]", "values": [
      {"measurement": "GI50", "setting": "[1]", "result": 0.04, "unit": "µg/mL"},
      {"measurement": "GI50", "setting": "[2]", "result": 0.01, "unit": "µg/mL"},
      {"measurement": "GI50", "setting": "[3]", "result": 1, "unit": "µg/mL"}
    ]}
  ]
}
